# Measurements taken from US20240368161A1, “CYCLOPROPANECARBOXAMIDE-CONTAINING COMPOUNDS AND APPLICATION THEREOF” (CGENETECH (SUZHOU, CHINA) CO., LTD., priority 2022, published 2024).
# Read-outs that look alike come from different tables or passages of the source.
# Experiments:
# JAK2 = JAK2 (Homo sapiens (Human), UniProt O60674); assay: JAK2 kinase inhibitory activity determination (HTRF Kinase-TK); format: biochemical; conditions: JAK2 0.008 ng/μL, ATP 4 μM, substrate 1 μM, 2 h
# Method: (§1) • JAK1: 0.32 ng/μL, ATP 4 M, substrate 1 μM, time 4 h • JAK2: 0.008 ng/μL, ATP 4 μM, substrate 1 M, time 2 h • JAK3: 0.1 ng/μL, ATP 3 μM, substrate 1 μM, time 3 h
# (§2) The half-maximal inhibitory concentration (IC50) was fitted using GraphPad Prism 6 based on the kinase inhibition rates of the compound to be tested at different concentrations.
# JAK1 = JAK1 (Homo sapiens (Human), UniProt P23458); assay: JAK1 kinase inhibitory activity determination (HTRF Kinase-TK); format: biochemical; conditions: JAK1 0.32 ng/μL, ATP 4 μM, substrate 1 μM, 4 h
# Method: as §1, §2
# JAK3 = JAK3 (Homo sapiens (Human), UniProt P52333); assay: JAK3 kinase inhibitory activity determination (HTRF Kinase-TK); format: biochemical; conditions: JAK3 0.1 ng/μL, ATP 3 μM, substrate 1 μM, 3 h
# Method: as §1
# At the end of incubation, HTRF665/620 signals were read on a multifunctional microplate reader.
# as §2
# [1] = Oral pharmacokinetic determination in mice; format: in vivo, C57 mice; conditions: for AUC(0-inf) / AUC(0-t) / Cmax / Tmax / MRT last / MRT inf / half-life: mouse, male C57 mice, plasma; for MRT last: read-out: MRT(0-t); for MRT inf: read-out: MRT(0-∞); for half-life: read-out: T½ (converted)
# Method: Three healthy male C57 mice, aged 6-8 weeks, were purchased from Shanghai Sippr-BK Laboratory Animal Co. Ltd. (Shanghai, China).
# Mice were fasted overnight prior to oral administration, and food supply was resumed 4 h after administration with free access to water. […] blood sampling; approximately 30 μL of blood was collected from the tested animals at 0.125 h, 0.25 h, 0.5 h, 1 h, 2 h, 4 h, 8 h, and 24 h, respectively, after administration and placed in test tubes containing the anticoagulant sodium heparin, which were placed on ice until centrifugation, and within 15 min, centrifuged in a centrifuge at 6800 g for 6 min at 6-8° C., and within 1 h of blood collection/centrifugation, plasma was transferred to appropriately labeled tubes and stored frozen at about −80° C.
# Mass spectrometry method: LC-MS/MS-19 (TQ5500) (SCIEX, USA), ion source: ESI source, detection mode: positive ion detection, scanning mode: multi-reaction monitoring (MRM) mode, m/z: 271.10/172.00 Da (Tolbutamide, internal standard).
# To 10 μL of the plasma sample, was added 200 μL of internal standard working solution (Tolbutamide, 100 ng/mL), with vortex for 1 min, followed by centrifugation for 10 min at 18,000 g. 200 μL of a supernatant was transferred to a 96-well low volume plate, and 1 μL of the supernatant was taken and injected into LC-MS/MS for analysis.
# Pharmacokinetic (PK) parameters were calculated using Phoenix WinNonlin 7.0 software, and oral pharmacokinetic parameters of mice including AUC, Cmax, Tmax, T½, etc., were estimated by the non-compartment model.
# JAK1, sequence (P23458 866-1154): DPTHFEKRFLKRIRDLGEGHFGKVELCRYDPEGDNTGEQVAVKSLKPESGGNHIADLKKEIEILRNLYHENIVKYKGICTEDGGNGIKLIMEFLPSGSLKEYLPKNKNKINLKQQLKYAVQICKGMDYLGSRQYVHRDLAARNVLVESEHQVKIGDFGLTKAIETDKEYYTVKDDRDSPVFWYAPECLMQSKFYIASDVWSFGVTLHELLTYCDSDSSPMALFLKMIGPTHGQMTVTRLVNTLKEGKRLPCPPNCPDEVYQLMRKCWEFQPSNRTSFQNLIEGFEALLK
# JAK3, sequence (P52333 795-1124): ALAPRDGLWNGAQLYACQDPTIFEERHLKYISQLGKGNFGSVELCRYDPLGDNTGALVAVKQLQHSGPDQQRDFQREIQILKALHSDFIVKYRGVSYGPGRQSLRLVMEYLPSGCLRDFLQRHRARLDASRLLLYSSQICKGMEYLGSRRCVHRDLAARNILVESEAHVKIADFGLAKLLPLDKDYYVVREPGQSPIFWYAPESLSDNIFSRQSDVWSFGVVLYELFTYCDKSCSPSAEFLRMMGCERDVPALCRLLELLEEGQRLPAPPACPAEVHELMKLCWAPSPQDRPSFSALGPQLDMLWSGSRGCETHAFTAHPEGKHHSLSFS
# JAK2, sequence (O60674 826-1132): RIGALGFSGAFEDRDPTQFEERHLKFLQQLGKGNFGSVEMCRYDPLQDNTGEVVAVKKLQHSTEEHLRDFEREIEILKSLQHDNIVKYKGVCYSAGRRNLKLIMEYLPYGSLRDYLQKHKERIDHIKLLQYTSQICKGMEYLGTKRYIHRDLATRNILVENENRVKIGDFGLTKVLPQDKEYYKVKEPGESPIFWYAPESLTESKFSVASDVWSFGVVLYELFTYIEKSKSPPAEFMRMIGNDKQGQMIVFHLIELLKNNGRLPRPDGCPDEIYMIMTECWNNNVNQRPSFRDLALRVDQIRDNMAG
Compound,IC50 (JAK2) [nM],IC50 (JAK1) [nM],IC50 (JAK3) [nM],other results
N#CCC(C1CCCC1)n1cc(-c2cccc3nc(NC(=O)C4CC4)cn23)cn1 (centres unmarked) [Compound 1],4.13,57.6,,
N#CCC(C1CC1)n1cc(-c2cccc3nc(NC(=O)C4CC4)cn23)cn1 (centres unmarked) [Compound 2],13.5,77,,
CCCC(CC#N)n1cc(-c2cccc3nc(NC(=O)C4CC4)cn23)cn1 (centres unmarked) [Compound 5],1.81,14,,
COCC(CC#N)n1cc(-c2cccc3nc(NC(=O)C4CC4)cn23)cn1 (centres unmarked) [Compound 6],9.49,48.9,,
COCCC(CC#N)n1cc(-c2cccc3nc(NC(=O)C4CC4)cn23)cn1 (centres unmarked) [Compound 9],13.4,28.3,,
N#CCC(C1CCCC1)n1cc(-c2cccc3nc(NC(=O)C4CC4)nn23)cn1 (centres unmarked) [Compound 11],6.28,36.6,,
N#CCC1(n2cc(-c3cccc4nc(NC(=O)C5CC5)cn34)cn2)CCC(C(F)(F)F)CC1 (centres unmarked) [Compound 13],0.8,8.4,46.8,
N#CCC1(n2cc(-c3cccc4nc(NC(=O)C5CC5)cn34)cn2)CCCCC1 [Compound 14],6.7,115,,
CS(=O)(=O)C1CN(Cc2ccc(-c3cccc4nc(NC(=O)C5CC5)cn34)cc2)C1 [Compound 15],,,,"systemic exposure (AUC) per unit dose compared to Filgotinib ([1]; mice, oral, unit dose comparison): higher systemic exposure; AUC(0-inf) ([1]; oral (gavage), dose 10 mg/kg): 9880 ng·h/mL; AUC(0-t) ([1]; oral (gavage), dose 10 mg/kg): 9750 ng·h/mL; Cmax ([1]; oral (gavage), dose 10 mg/kg): 6220 ng/mL; Tmax ([1]; oral (gavage), dose 10 mg/kg): 0.29 h; MRT last ([1]; oral (gavage), dose 10 mg/kg): 1.6 h; MRT inf ([1]; oral (gavage), dose 10 mg/kg): 1.7 h; half-life ([1]; oral (gavage), dose 10 mg/kg): 1.31 h"
O=C(Nc1nc2cccc(-c3ccc(OC4CCS(=O)(=O)CC4)cc3)n2n1)C1CC1 [Compound 19],90.3,182,909,
O=C(Nc1cn2c(-c3ccc(ON4CC[S+]([O-])CC4)cc3)cccc2n1)C1CC1 [Compound 21],592,247,,
O=C(Nc1nc2cccc(-c3ccc(CN4CCS(=O)(=O)CC4)cc3)n2n1)C1(F)CC1 [Compound 24],1580,3640,> 10000,
O=C(Nc1nc2cccc(-c3ccc(CN4CCS(=O)(=O)CC4)cc3)n2n1)C1C[C@H]1F (some centres unmarked) [Compound 26],1090,1250,3450,
O=C(Nc1nc2cccc(-c3ccc(CN4CCS(=O)(=O)CC4)cc3)n2n1)C1C[C@@H]1F (some centres unmarked) [Compound 27],415,1080,1920,
CCS(=O)(=O)C1CCN(Cc2ccc(-c3cccc4nc(NC(=O)C5CC5)cn34)cc2)CC1 [Compound 30],162,387,5590,
"O=C(Nc1nc2cccc(-c3ccc(CN4CCS(=O)(=O)CC4)cc3)n2n1)C1CC1 [Filgotinib, reference compound]",,,,"AUC(0-inf) ([1]; oral, dose 5 mg/kg): 2190 ng·h/mL; AUC(0-t) ([1]; oral, dose 5 mg/kg): 2120 ng·h/mL; Cmax ([1]; oral, dose 5 mg/kg): 1710 ng/mL; Tmax ([1]; oral, dose 5 mg/kg): 0.25 h; MRT last ([1]; oral, dose 5 mg/kg): 1.54 h; MRT inf ([1]; oral, dose 5 mg/kg): 1.82 h; half-life ([1]; oral, dose 5 mg/kg): 1.79 h"

# The next lines start with results.
IC50 (JAK2) [nM],IC50 (JAK1) [nM],IC50 (JAK3) [nM],Compound,other results
6.87,37.8,,N#CCC(CC1CC1)n1cc(-c2cccc3nc(NC(=O)C4CC4)cn23)cn1 (centres unmarked) [Compound 3],
4.68,19.5,,CCC(CC#N)n1cc(-c2cccc3nc(NC(=O)C4CC4)cn23)cn1 (centres unmarked) [Compound 4],
1.72,7.62,,CCCCC(CC#N)n1cc(-c2cccc3nc(NC(=O)C4CC4)cn23)cn1 (centres unmarked) [Compound 7],
1.24,6.64,,N#CCC(CCC(F)(F)F)n1cc(-c2cccc3nc(NC(=O)C4CC4)cn23)cn1 (centres unmarked) [Compound 10],
0.7,10,,N#CCC1(n2cc(-c3cccc4nc(NC(=O)C5CC5)cn34)cn2)CCC(F)(F)CC1 [Compound 12],
1980,590,7780,O=C(Nc1nc2cccc(-c3ccc(CN4CCS(=O)(=O)CC4)cc3)n2n1)C1CC1(F)F (centres unmarked) [Compound 25],
24.2,26.2,94.9,O=C(Nc1cn2c(-c3ccc(CN4CCC(F)(F)CC4)cc3)cccc2n1)C1CC1 [Compound 28],
170,88.7,6110,O=C(Nc1cn2c(-c3ccc(CN4CCS(=O)(=O)CC4)cc3F)cccc2n1)C1CC1F (centres unmarked) [Compound 29],
448,956,9640,CC(C)S(=O)(=O)C1CCN(Cc2ccc(-c3cccc4nc(NC(=O)C5CC5)cn34)cc2)CC1 [Compound 32],
463,675,8280,CC(C)CS(=O)(=O)C1CCN(Cc2ccc(-c3cccc4nc(NC(=O)C5CC5)cn34)cc2)CC1 [Compound 33],
